Consider 39 molecules from PubChem BioAssay (NCI).

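Tested at 5 concentrations; 48 h exposure; 96-well plates; endpoints linearly interpolated, else capped at highest concentration. The concentration for 50% growth inhibition is given as GI50. TGI is the concentration that stops growth completely.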

The test system of the experiment is MDA-MB-468 breast. In words: DTP human tumour cell line panel, 48 h.

Consider `C=C1C(=O)O[C@H]2[C@H]1CC/C(COC(=O)NCc1ccc(Cn3c(=O)sn(-c4ccccc4)c3=O)cc1)=C\CC[C@@]1(C)O[C@@H]21`, for which the GI50 was 1170 nM and the TGI turned out to be 2850 nM.

In the case of `CC(=O)c1nc2ccccc2n1CC(=O)c1cccc(Cl)c1`, the GI50 was 328 nM.

As to `CCN(CC)c1ccc(/C=C/C=C2\NC(=O)NC2=O)cc1`, the GI50 was 1820 nM and the TGI is 7260 nM.

`Cc1ccc(-c2cc(O)c(-c3ccc(C)cc3C)cc2O)c(C)c1`: the GI50 is 1750 nM and the TGI came out at 13500 nM.

`CN(C)CCCn1c(-c2nonc2N)nc2cnccc21` came in with a TGI of over 25000 nM.

For `CCN(c1cc(C#CCN2CCOCC2)cc(C(=O)NCc2c(C)cc(C)[nH]c2=O)c1C)C1CCC(N(C)CCOC)CC1` (stereo not given), the GI50 is over 100000 nM and the concentration for total growth inhibition (TGI) is over 100000 nM.

On to `Nc1c(C(=O)Nc2cccc(Cl)c2Cl)sc2nc3c(cc12)C(=O)CCC3`, for which the GI50 is 786 nM and the TGI is over 100000 nM.

For `O=c1ccc2nc(-c3ccccn3)nn(-c3ccccc3)c-2c1`, the GI50 was 1440 nM and the TGI amounted to 3450 nM.

For the molecule `Cc1cc(C(=O)c2ccccc2)c(C)c2c1[nH]c1ccc(Cl)cc12`, the GI50 is 33.9 nM and the TGI worked out at 1120 nM.

Regarding `CCCCCn1c(C)cc(/C=C\c2ccc3cc(C)ccc3[n+]2C)c1C`, the GI50 is 13.3 nM and the TGI was found to be 52.3 nM.

With `Cc1cc(Nc2cc(N)ncn2)c(=O)n2c1C(=O)NC21CCCCC1`, the GI50 was 94900 nM and the TGI was over 100000 nM.

Take `COc1cc(-c2csc(NC(=O)Nc3cc(Cl)cc(Cl)c3)n2)cc(OC)c1OC`: the GI50 is 1670 nM and the TGI was 3820 nM.

For the molecule `COc1ccc2nc3cc(Cl)ccc3c(NCCNc3c4ccc(Cl)cc4nc4ccc(OC)cc34)c2c1`, the GI50 is 1800 nM and the TGI worked out at 3780 nM.

`Cc1cccc(Cc2cnc(NC(=O)CCc3ccc(C)o3)s2)c1`: the GI50 was 112 nM and the TGI was determined as 6560 nM.

On to `COc1ccc(Cn2cc3c(c2-c2cc(OC)c(OC)c(OC)c2)CCc2cnoc2-3)cc1`, for which the GI50 is 171 nM and the TGI turned out to be 622 nM.

As for `O=C(NC(=S)Nc1cc(Cl)ccc1O)c1cccc(Br)c1`, the GI50 was 5250 nM and the TGI was over 100000 nM.

`O=C1OCC2=C1C(c1ccccc1)c1cc3c(cc1N2CCO)OCCO3` (stereo not given): the 50% growth inhibitory concentration (GI50) is 138 nM and the TGI was found to be 959 nM.

As to `CC(C)(C)c1ccc(NS(=O)(=O)c2ccc3nc(NC(=O)c4cnccn4)[nH]c3c2)cc1`, the GI50 was 712 nM and the TGI came out at 4270 nM.

For the molecule `Nc1ncc(-c2cccc(S(N)(=O)=O)c2)c2scc(-c3ccc(F)c(Cl)c3)c12`, the GI50 is 5130 nM and the TGI was 15700 nM.

With `CC(=C/c1ccccc1)/C=C1/NC(=S)N(/C=C2\C(=O)Oc3ccccc3C2=O)C1=O`, the GI50 is 26900 nM and the TGI is over 100000 nM.

Regarding `C=CC(COC(c1ccccc1)(c1ccccc1)c1ccccc1)N(CC)CC` (stereo not given), the GI50 was 2430 nM and the TGI amounted to 6750 nM.

`COc1c(B(O)O)cc(F)cc1-c1nc2ccc3[nH]ncc3c2c2c1CCCC2`: the GI50 was 1510 nM and the TGI was 4210 nM.

Take `O=C(CCCCC(=O)N/N=C\c1ccccc1O)N/N=C\c1ccccc1O`: the GI50 was 2630 nM and the TGI was over 100000 nM.

For `C[C@@H]1COCCN1c1cc(C2(O)C[C@H]3CC[C@@H](C2)O3)c2cnn(-c3ccn[nH]3)c2n1` (stereo not given in full), the GI50 was 113 nM and the TGI is 545 nM.

For `CCN(Cc1c(Cl)cccc1Cl)c1ccc(CO)c(Cl)c1`, the TGI worked out at 33 nM.

With `CC(=O)c1cc(O)c2ccccc2c1O`, the GI50 was 17500 nM and the TGI is 33400 nM.

Take `CCCCCCCCCCCCCCCC1=NC(C)(C)CN1C(C)C`: the GI50 was 1320 nM and the TGI stood at 2660 nM.

Turning to `Cn1cc(C2=C(N3CCOCC3)C(=O)NC2=O)c2ccccc21`, the GI50 was over 25000 nM and the TGI is over 25000 nM.

For `CC#Cc1nc(Nc2cc(C)[nH]n2)c2ccccc2n1`, the GI50 was 2470 nM and the TGI was determined as 6400 nM.

For `Oc1ccc(N=Nc2ccccn2)c(O)c1`, the GI50 is 681 nM and the TGI worked out at 4650 nM.

Turning to `COc1ccc2ccc3oc([N+](=O)[O-])cc3c2c1`, the GI50 was 168 nM and the TGI was determined as 381 nM.

In the case of `O=c1oc2c(C(F)(F)F)cccc2cc1-c1csc(Nc2ccc(OCCF)cc2)n1`, the GI50 was 40.1 nM and the TGI came out at 12400 nM.

In the case of `Cc1c(Cl)cccc1NC(=O)c1sc2nc3c(cc2c1N)CCCCC3`, the GI50 was 165 nM and the TGI came out at 29600 nM.

As for `N#CC1C=Cc2c(ccc3ccccc23)N1C(=O)c1ccccc1` (stereo not given), the GI50 was 43.2 nM and the TGI was 218 nM.

With `C[C@@H](Nc1nc(Nc2ccc(F)c(Cl)c2)nc2ccccc12)C1CC1`, the GI50 was 1350 nM and the TGI is 3740 nM.

For the molecule `CC[C@H](C)C(=O)O[C@H]1C[C@H](O)C=C2C=C[C@H](C)[C@H](CC[C@@H](O)C[C@@H](O)CC(=O)O)[C@H]21`, the GI50 was over 100000 nM and the TGI is over 100000 nM.

In the case of `COc1ccc(-c2nn(-c3ccc(NC(=O)Nc4ccc(Cl)c(C(F)(F)F)c4)cc3)cc2-c2ccncc2)cc1Cl`, the GI50 was 1180 nM and the TGI amounted to 3110 nM.

Consider `CNCCN=c1ccc2c3c1c(O)c1c(O)ccc(=O)c1c3[nH]n2CCNCCO`, for which the GI50 was 63.4 nM and the TGI was determined as 435 nM.

For the molecule `CC1(C)C(=O)/C(=C\c2cccnc2)C[C@]2(C)[C@H]3CC[C@@H]4[C@@H](C(=O)/C=C/c5ccncc5)CC[C@@]4(C)[C@]3(C)CC[C@@H]12`, the GI50 is 1720 nM and the TGI was found to be 3670 nM.

As a reminder, the GI50 is the concentration at which growth is held to half of that of the control. By TGI is commonly meant the concentration at which net growth stops. Lower therefore signals more potent growth arrest.
